# Test results reported in patent US11548899B2, “Fused 1,4-oxazepines and related analogs as BET bromodomain inhibitors” (THE REGENTS OF THE UNIVERSITY OF MICHIGAN, priority 2016, dated 2023).
# “And” between values parts separate entries of the source, which are not always exact repeats. Identical values can stand only once. Like-named read-outs stand apart in the source and are kept apart here.
# Experiments:
# [1] = system: RS4-11; assay: Cell growth inhibition, 4-day proliferation assay, RS4-11; assay type: cell-based; conditions: read-out: Cell Viability (IC50, μM) RS4-11
# Procedure: (§1) The effect of representative Compounds of the Disclosure on cell viability was determined in a 4-day proliferation assay. Cells were maintained in the appropriate culture medium with 10% FBS at 37° C. and an atmosphere of 5% CO2. All the cell lines were used within three months of thawing fresh vials.
# (§2) Cells were seeded in 96-well flat bottom (Corning COSTAR, Corning, N.Y., cat #3595) or white opaque cell culture plates (BD Falcon, cat #353296) at a density of 3,000-10,000 cells/well in 75 μl of culture medium. Compounds were serially diluted in the appropriate medium, and 75 μl of the diluted compounds were added to the appropriate wells of the cell plate. After the addition of compounds, the cells were incubated at 37° C. in an atmosphere of 5% CO2 for 4 days. Cell viability was determined using the CellTiter-Glo® Luminescent Cell Viability Assay Kit (Promega, Madison, Wis.) for leukemia cells and WST (2-(2-methoxy-4-nitrophenyl)-3-(4-nitrophenyl)-5-(2,4-disulfophenyl)-2H-tetrazolium, monosodium salt) Cell Counting-8 Kit (Dojindo Molecular Technologies, Inc., Rockville, Md.) for adhenrent cells according to the manufacturers' instructions. […]
# (§3) For CellTiter-Glo assay (suspension cells), 100 μl of CellTiter-Glo® Reagent was added to each well, and then the plates were incubated at room temperature for 10-20 minutes. The luminescent signal was measured using a Tecan Infinite M1000 multimode microplate reader (Tecan, Morrisville, N.C.). The readings were normalized to the DMSO-treated cells and the IC50 was calculated by nonlinear regression (four parameters sigmoid fitted with variable slope, least squares fit, and no constraint) analysis using the GraphPad Prism 5 software. See US 2014/0256706.
# [2] = system: MOLM-13; assay: Cell growth inhibition, 4-day proliferation assay, MOLM-13; assay type: cell-based; conditions: read-out: Cell Viability (IC50, μM) MOLM-13
# Procedure: as §1, §2, §3
# [3] = target: T1, recombinant BRD4 BD1 (Homo sapiens, UniProt O60885); assay: Competitive fluorescence-polarization (FP) binding assay, BRD4 BD1
# T1 construct: recombinant BRD4 BD1 and BRD4 BD2 proteins
# [4] = target: T2, recombinant BRD4 BD2 (Homo sapiens, UniProt O60885); assay: Competitive fluorescence-polarization (FP) binding assay, BRD4 BD2; conditions: protein 6 nM, probe 1.5 nM
# T2 construct: recombinant BRD4 BD1 and BRD4 BD2 proteins
# Procedure: Fluorescence Polarization (FP) competitive binding studies were carried out using a FAM labeled fluorescent probe, see Cpd. […] Equilibrium dissociation constants (Kd) values of the fluorescent probe to BRD4 BD1 and BD2 proteins were determined from protein saturation experiments by monitoring the total fluorescence polarization of mixtures composed with the fluorescent probe at a fixed concentration and proteins with increasing concentrations up to full saturation. Serial dilutions of testing proteins were mixed with the fluorescent probe to a final volume of 200 μl in the assay buffer (100 mM phosphate buffer, pH=6.5, 0.01% Triton X-100 (Sigma, 282103) being added right before assays). Final fluorescent probe concentration was 1.5 nM for both proteins. Plates were incubated at room temperature for 30 minutes with gentle shaking to assure equilibrium. FP values in millipolarization units (mP) were measured using the Infinite M-1000 plate reader (Tecan U.S., Research Triangle Park, N.C.) in Microfluor 1 96-well, black, round-bottom plates (Thermo Scientific, Waltham, Mass.) at an excitation wavelength of 485 nm and an emission wavelength of 530 nm.
# The IC50 and Ki values of compounds were determined in a competitive binding experiment. […] Mixtures of 10 μl of the tested compounds in assay buffer with 40% Ethylene Glycol and 190 μl of preincubated protein/probe complex solution in the assay buffer (100 mM potassium phosphate, pH 6.5, 0.01% Triton X-100) were added into assay plates which were incubated at room temperature for 30 minutes with gentle shaking. Final concentrations of proteins were 10 and 6 nM in assays for BRD4 BD1 and BD2, respectively. Final probe concentration is 1.5 nM in both assays. […] FP values were measured as described above. IC50 values were determined by nonlinear regression fitting of the competition curves.
# [5] = Homo sapiens, RS4-11, 96 h, 4 days incubation, RS4-11 cells
# [6] = 4 days incubation, MOLM-13 cells
# [7] = Homo sapiens, MOLM-13, 96 h, 4 days incubation, MOLM-13 cells
# [8] = FP competitive binding, protein 10 nM, probe 1.5 nM, read-out: IC50 (nM) BRD4 BD1
# [9] = 4 days incubation, RS4-11 cells
Structure (SMILES),"IC50 [1, 5] [µM]","IC50 [2, 7] [µM]","IC50 [3, 8]",IC50 [4],also measured
"Cc1sc2c(c1Cc1ccccc1)COCc1nnc(C)n1-2 [Cpd. No. 4, 3-benzyl-2,9-dimethyl-4H,6H-thieno[2,3-e][1,2,4]triazolo[3,4-c][1,4]oxazepine]",1.7,0.8,,,"IC50 [2, 6]: 0.9 µM"
"Cc1sc2c(c1-c1ccnc3ccccc13)COCc1nnc(C)n1-2 [Cpd. No. 5, 2,9-dimethyl-3-(quinolin-4-yl)-4H,6H-thieno[2,3-e][1,2,4]triazolo[3,4-c][1,4]oxazepine]",> 5,,1370 nM,1070 nM,
"Cc1sc2c(c1Nc1ccccc1)COCc1nnc(C)n1-2 [Cpd. No. 6, 2,9-dimethyl-N-phenyl-4H,6H-thieno[2,3-e][1,2,4]triazolo[3,4-c][1,4]oxazepin-3-amine]",,,317 nM and 629 nM,346 nM and 457 nM,"IC50 ([1]; Homo sapiens, RS4-11, 96 h): 4.5 µM; IC50 ([2]; Homo sapiens, MOLM-13, 96 h): > 5 µM"
"Cc1sc2c(c1Nc1cc(C3CC3)nn1C)COCc1nnc(C)n1-2 [Cpd. No. 7, N-(3-cyclopropyl-1-methyl-H-pyrazol-5-yl)-2,9-dimethyl-4H,6H-thieno[2,3-e][1,2,4]triazolo[3,4-c][1,4]oxazepin-3-amine]",4.2,2.8,171 nM and 311 nM,1160 nM and 1260 nM,
"Cc1sc2c(c1Cc1ccccc1)CN(C(=O)OCc1ccccc1)[C@@H](C)c1nnc(C)n1-2 [Cpd. No. 12, benzyl (S)-3-benzyl-2,6,9-trimethyl-4H-thieno[3,2-f][1,2,4]triazolo[4,3-a][1,4]diazepine-5(6H)-carboxylate]",4.7,4,371 nM,328 nM and 379 nM,
"Cc1sc2c(c1Cc1ccccc1)CN(C(=O)OCc1ccccc1)Cc1nnc(C)n1-2 [Cpd. No. 14, benzyl 3-benzyl-2,9-dimethyl-4H-thieno[3,2-f][1,2,4]triazolo[4,3-a][1,4]diazepine-5(6H)-carboxylate]",2.4,1.9,85 nM and 112 nM,118 nM and 145 nM,
"Cc1sc2c(c1Cc1ccccc1)CNCc1nnc(C)n1-2 [Cpd. No. 15, 3-benzyl-2,9-dimethyl-5,6-dihydro-4H-thieno[3,2-f][1,2,4]triazolo[4,3-a][1,4]diazepine]",2.7,2,531 nM and 751 nM,102 nM and 111 nM,
"Cc1sc2c(c1C(C)c1ccccc1)COCc1nnc(C)n1-2 (stereo not drawn) [Cpd. No. 28, 2,9-dimethyl-3-(1-phenylethyl)-4H,6H-thieno[2,3-e][1,2,4]triazolo[3,4-c][1,4]oxazepine]",,4.7,772 nM,749 nM,
"Cc1nnc2n1-c1cccc(C(C)c3ccccc3)c1COC2 (stereo not drawn) [Cpd. No. 46, 1-methyl-7-(1-phenylethyl)-4,6-dihydrobenzo[e][1,2,4]triazolo[3,4-c][1,4]oxazepine]",,2.9,807 nM,268 nM,
"Cc1nnc2n1-c1cccc(C3(c4ccccc4)CC3)c1COC2 [Cpd. No. 48, 1-methyl-7-(1-phenylcyclopropyl)-4,6-dihydrobenzo[e][1,2,4]triazolo[3,4-c][1,4]oxazepine]",,1.4,454 nM and 696 nM,71.6 nM and 137 nM,
"Cc1nnc2n1-c1sc(C#Cc3cccnc3)c(Cc3ccccc3)c1COC2 [Cpd. No. 88, 3-benzyl-9-methyl-2-(pyridin-3-ylethynyl)-4,6-dihydrothieno[2,3-e][1,2,4]triazolo[3,4-c][1,4]oxazepine]",,,,,"IC50 ([1]; Homo sapiens, RS4-11, 96 h): 0.25 µM; IC50 ([2]; Homo sapiens, MOLM-13, 96 h): 0.12 µM"
"Cc1nnc2n1-c1sc(CCCCO)c(Cc3ccccc3)c1COC2 [Cpd. No. 99, 4-(3-benzyl-9-methyl-4H,6H-thieno[2,3-e][1,2,4]triazolo[3,4-c][1,4]oxazepin-2-yl)butan-1-ol]",2.2,2.9,,,IC50 ([3]; IC50 (nM) BRD4 BD1): 367 nM

# Now from value to molecule, other results behind:
"IC50 [1, 5] [µM]","IC50 [2, 7] [µM]","IC50 [3, 8]",IC50 [4],Structure (SMILES),also measured
,> 5,2350 nM and 1820 nM,271 nM and 175 nM,"Cc1nnc2n1-c1cccc(C3=CCCc4ccccc43)c1COC2 [Cpd. No. 49, 7-(3,4-dihydronaphthalen-1-yl)-1-methyl-4,6-dihydrobenzo[e][1,2,4]triazolo[3,4-c][1,4]oxazepine]",
,2.7,425 nM and 585 nM,146 nM and 247 nM,"Cc1nnc2n1-c1cccc(C3CCCc4ccccc43)c1COC2 (stereo not drawn) [Cpd. No. 50, 1-methyl-7-(1,2,3,4-tetrahydronaphthalen-1-yl)-4,6-dihydrobenzo[e][1,2,4]triazolo[3,4-c][1,4]oxazepine]",
1,0.7,,,"Cc1nnc2n1-c1ccc(C#CCCO)c(Cc3ccccc3)c1COC2 [Cpd. No. 84, 4-(7-benzyl-1-methyl-4,6-dihydrobenzo[e][1,2,4]triazolo[3,4-c][1,4]oxazepin-8-yl)but-3-yn-1-ol]",
0.2,0.14,,,"Cc1nnc2n1-c1sc(C#Cc3cncn3C)c(Cc3ccccc3)c1COC2 [Cpd. No. 86, 3-benzyl-9-methyl-2-((1-methyl-H-imidazol-5-yl)ethynyl)-4,6-dihydrothieno[2,3-e][1,2,4]triazolo[3,4-c][1,4]oxazepine]",
0.21,0.14,,,"Cc1nnc2n1-c1sc(C#Cc3ccncc3)c(Cc3ccccc3)c1COC2 [Cpd. No. 87, 3-benzyl-9-methyl-2-(pyridin-4-ylethynyl)-4,6-dihydrothieno[2,3-e][1,2,4]triazolo[3,4-c][1,4]oxazepine]",
1.2,1.2,153 nM,,"Cc1nnc2n1-c1sc(-c3cn[nH]c3)c(Cc3ccccc3)c1COC2 [Cpd. No. 91, 3-benzyl-9-methyl-2-(1H-pyrazol-4-yl)-4H,6H-thieno[2,3-e][1,2,4]triazolo[3,4-c][1,4]oxazepine]",
1.6,1.6,211 nM,,"Cc1nnc2n1-c1sc(-c3cnn(C)c3)c(Cc3ccccc3)c1COC2 [Cpd. No. 92, 3-benzyl-9-methyl-2-(1-methyl-H-pyrazol-4-yl)-4H,6H-thieno[2,3-e][1,2,4]triazolo[3,4-c][1,4]oxazepine]",
> 5,> 5,,,"Cc1nnc2n1-c1sc(C3CC3)c(Cc3ccccc3)c1COC2 [Cpd. No. 93, 3-benzyl-2-cyclopropyl-9-methyl-4H,6H-thieno[2,3-e][1,2,4]triazolo[3,4-c][1,4]oxazepine]",
0.4,0.3,,,"Cc1nnc2n1-c1sc(C#CCCO)c(Cc3ccccc3)c1COC2 [Cpd. No. 96, 4-(3-benzyl-9-methyl-4H,6H-thieno[2,3-e][1,2,4]triazolo[3,4-c][1,4]oxazepin-2-yl)but-3-yn-1-ol]","IC50 [1, 9]: 0.34 µM; IC50 [2, 6]: 0.25 µM"
2.3,2.4,208 nM,,"Cc1sc2c(c1Cc1cccc(F)c1)COCc1nnc(C)n1-2 [Cpd. No. 100, 3-(3-fluorobenzyl)-2,9-dimethyl-4H,6H-thieno[2,3-e][1,2,4]triazolo[3,4-c][1,4]oxazepine]",
3.6,> 5,832 nM,,"Cc1sc2c(c1Cc1cccc(C#N)c1)COCc1nnc(C)n1-2 [Cpd. No. 101, 3-(3-cyanobenzyl)-2,9-dimethyl-4H,6H-thieno[2,3-e][1,2,4]triazolo[3,4-c][1,4]oxazepine]",
2.6,3.9,222 nM,,"Cc1sc2c(c1Cc1ccccc1F)COCc1nnc(C)n1-2 [Cpd. No. 102, 3-(2-fluorobenzyl)-2,9-dimethyl-4H,6H-thieno[2,3-e][1,2,4]triazolo[3,4-c][1,4]oxazepine]",
1.5,2.6,283 nM,,"Cc1sc2c(c1Cn1ccc3ccccc31)COCc1nnc(C)n1-2 [Cpd. No. 106, 3-((1H-indol-1-yl)methyl)-2,9-dimethyl-4H,6H-thieno[2,3-e][1,2,4]triazolo[3,4-c][1,4]oxazepine]",
0.18,,5.4 nM and 10.5 nM and 12.9 nM,112 nM and 142 nM and 127 nM,"Cc1nnc2n1-c1sc(C#Cc3cnn(C)c3)c(Cc3ccc(F)cc3)c1COC2 [Cpd. No. 111, 3-(4-fluorobenzyl)-9-methyl-2-((1-methyl-H-pyrazol-4-yl)ethynyl)-4H,6H-thieno[2,3-e][1,2,4]triazolo[3,4-c][1,4]oxazepine]","IC50 [1, 9]: 0.25 µM"
0.24,,26.9 nM and 40 nM,146 nM and 149 nM,"Cc1nnc2n1-c1sc(C#CCCO)c(Cc3ccccc3)c1CO[C@H]2C [Cpd. No. 113, (S)-4-(3-benzyl-6,9-dimethyl-4H,6H-thieno[2,3-e][1,2,4]triazolo[3,4-c][1,4]oxazepin-2-yl)but-3-yn-1-ol]","IC50 [1, 9]: 0.45 µM"
